Patent publication US9668480B2, “Method for treating plants against fungi resistant to fungicides using carboxamide or thiocarboxamide derivatives” (priority 2012, dated 2017)
Where “and” joins values, the source holds several entries; their conditions need not be identical. Equal values may be shown once.

What was measured:
[1] = molecular target: succinate-ubiquinone redutase (SDH) of mitochondria from the 3884 strain (SDHB P225H substitution) (Botrytis cinerea, UniProt A0A384J5E4+D2IH01+D2IH03, P225H); experiment: SDH activity of extracted mitochondria by DCPIP reduction at 595 nm, P225H mutant; type: biochemical; settings: for PI50 P225H3884: mitochondria of 3884 strain, 20 min preincubation, -log 10 of concentration inhibiting DCPIP reduction by 50%; for Classification: pI50 on P225H 3884 mitochondria compared to WT
Method: (§1) Compounds activity was investigated at the level of the mitochondrial target and compared to other SDH inhibitors.
(§2) Mitochondria were extracted according to Cramer et al. (1983) Analytical biochemistry, 128, 384-392 and the mycelium prepared according to Fritz et al., (1993). Agronomie 13, 225-230 except that spore's incubation was pursued for 48 hours. SDH activity was measured by following DCPIP (2,6-dichlorphenol-indophenol) reduction at 595 nm overtime. To test SDH inhibitors, mitochondria were incubated with test compounds for 20 min prior the initiation of the reaction.

[2] = tested on: Botrytis cinerea boscalid-resistant strains with SDHB_P225H, F substitutions; experiment: Sensitivity assay in microtiter plate, resistance factor of boscalid-resistant field strains versus Bo47 WT; type: cell-based
Method: Four to five strains with SDHB_P225H, F substitutions were retained for subsequent sensitivity assays in microtiter plate. IC50 of test compounds were determined and resistance factors (RF) calculated as the ratio of IC50 mutant/IC50 WT (Bo47). […] Strains giving a RF below 10 were considered sensitive, moderately resistant when RF was comprised between 10 and 50, resistant above 50.

[3] = molecular target: succinate-ubiquinone redutase (SDH) of mitochondria from Bo47 WT strain (Botrytis cinerea, UniProt A0A384J5E4+D2IH01+D2IH03); experiment: SDH activity of extracted mitochondria by DCPIP reduction at 595 nm, wild type; type: biochemical; settings: 20 min preincubation, -log 10 of concentration inhibiting DCPIP reduction by 50%
Method: as §1, §2

[4] = mutation P225F, BOTRCI strain 08BC1554
[5] = mutation P225F, BOTRCI strain 08BC1557
[6] = mutation P225F, BOTRCI strain 08BC1558
[7] = mutation P225F, BOTRCI strain 09BC2615
[8] = mutation P225H, BOTRCI strain 09BC2640
[9] = mutation P225H, BOTRCI strain 09BC2648
[10] = mutation P225H, BOTRCI strain 09BC2649

succinate-ubiquinone redutase (SDH) of mitochondria from Bo47 WT strain, sequence (A0A384K456 entry or part of it): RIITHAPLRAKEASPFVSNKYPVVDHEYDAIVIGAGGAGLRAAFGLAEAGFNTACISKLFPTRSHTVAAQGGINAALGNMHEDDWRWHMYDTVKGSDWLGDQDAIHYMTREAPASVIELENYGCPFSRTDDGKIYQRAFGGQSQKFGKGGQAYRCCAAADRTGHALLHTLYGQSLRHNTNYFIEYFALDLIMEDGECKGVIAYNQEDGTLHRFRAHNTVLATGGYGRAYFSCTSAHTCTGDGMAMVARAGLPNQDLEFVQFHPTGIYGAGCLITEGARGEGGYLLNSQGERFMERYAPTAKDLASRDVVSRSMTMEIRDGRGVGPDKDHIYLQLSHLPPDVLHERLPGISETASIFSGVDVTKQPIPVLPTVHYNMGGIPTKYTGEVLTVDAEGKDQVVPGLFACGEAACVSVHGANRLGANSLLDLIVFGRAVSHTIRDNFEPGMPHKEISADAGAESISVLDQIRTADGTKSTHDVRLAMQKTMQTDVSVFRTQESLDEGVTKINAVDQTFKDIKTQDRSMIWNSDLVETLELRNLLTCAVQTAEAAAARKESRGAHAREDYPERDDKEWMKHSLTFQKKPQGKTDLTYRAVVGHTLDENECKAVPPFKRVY
succinate-ubiquinone redutase (SDH) of mitochondria from Bo47 WT strain, sequence (D2IH03 entry or part of it): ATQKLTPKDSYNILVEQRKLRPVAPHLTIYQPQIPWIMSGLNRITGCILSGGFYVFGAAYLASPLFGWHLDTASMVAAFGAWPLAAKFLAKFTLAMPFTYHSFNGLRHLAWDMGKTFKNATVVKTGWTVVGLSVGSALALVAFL
succinate-ubiquinone redutase (SDH) of mitochondria from Bo47 WT strain, sequence (A0A384J5E4 entry or part of it): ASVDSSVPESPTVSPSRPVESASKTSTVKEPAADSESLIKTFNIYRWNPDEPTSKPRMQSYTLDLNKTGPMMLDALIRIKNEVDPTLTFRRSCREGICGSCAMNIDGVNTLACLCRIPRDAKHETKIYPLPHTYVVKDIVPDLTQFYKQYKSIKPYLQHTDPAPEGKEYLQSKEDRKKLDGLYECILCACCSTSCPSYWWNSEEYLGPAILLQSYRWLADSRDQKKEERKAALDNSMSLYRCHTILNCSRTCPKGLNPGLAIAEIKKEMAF
succinate-ubiquinone redutase (SDH) of mitochondria from Bo47 WT strain, sequence (D2IH01 entry or part of it): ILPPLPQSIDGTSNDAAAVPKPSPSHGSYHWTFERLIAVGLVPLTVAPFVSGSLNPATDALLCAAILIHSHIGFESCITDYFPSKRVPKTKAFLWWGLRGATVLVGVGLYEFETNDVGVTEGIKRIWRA
succinate-ubiquinone redutase (SDH) of mitochondria from the 3884 strain (SDHB P225H substitution), sequence (A0A384J5E4 30-300, stated change not applied): as the sequence (A0A384J5E4 entry or part of it) above
succinate-ubiquinone redutase (SDH) of mitochondria from the 3884 strain (SDHB P225H substitution), sequence (D2IH03 46-189, stated change not applied): as the sequence (D2IH03 entry or part of it) above
succinate-ubiquinone redutase (SDH) of mitochondria from the 3884 strain (SDHB P225H substitution), sequence (D2IH01 64-192, stated change not applied): as the sequence (D2IH01 entry or part of it) above
succinate-ubiquinone redutase (SDH) of mitochondria from the 3884 strain (SDHB P225H substitution), sequence (A0A384K456 34-647 partner): as the sequence (A0A384K456 entry or part of it) above

SMILES | PI50 P225H3884 [1] | Classification [1] | resistance factor (RF), ratio of IC50 mutant/IC50 WT (Bo47) [2, 4] | resistance factor (RF), ratio of IC50 mutant/IC50 WT (Bo47) [2, 5] | resistance factor (RF), ratio of IC50 mutant/IC50 WT (Bo47) [2, 6] | resistance factor (RF), ratio of IC50 mutant/IC50 WT (Bo47) [2, 7] | resistance factor (RF), ratio of IC50 mutant/IC50 WT (Bo47) [2, 8] | resistance factor (RF), ratio of IC50 mutant/IC50 WT (Bo47) [2, 9] | resistance factor (RF), ratio of IC50 mutant/IC50 WT (Bo47) [2, 10] | resistance factor (RF), ratio of IC50 mutant/IC50 WT (Bo47) ([2]; mutation P225H, BOTRCI strain 09BC2652) | PI50 Bo47 (Wild type) [3] | sensitivity class of strains by RF ([2]; strains harboring P225H and F substitutions)
Cn1cc(C(=O)Nc2ccccc2-c2cc(F)c(F)c(F)c2)c(C(F)F)n1 [Fluxapyroxad] | 6.2 | C (Classification C pI50 decrease superior to 0.6 compared to WT) | 197.2 | 135.6 | 131.5 | 89.1 | 103.0 | 127.9 | 134.2 | 104.7 | 8.0 | 
CC(C)C1C2CCC1c1c(NC(=O)c3cn(C)nc3C(F)F)cccc12 (stereo not shown) [Isopyrazam] | 7.2 | C (Classification C pI50 decrease superior to 0.6 compared to WT) | 48.4 | 42.9 | 37.9 | 32.8 | 19.7 | 25.1 | 30.7 |  | 8 and 8.2 | moderately resistant (moderately resistant when RF was comprised between 10 and 50)
